The source of these data is PubChem BioAssay (NCI).

What all share (assay): NCI anticancer screen, dose series, 48 h
The test system of experiment [1] is HCT-116 colon.
Experiment [2] relates to HOP-62 NSCLC.
The subject of experiment [3] is NCI-H460 lung.
Experiment [4] concerns OVCAR-8 ovarian.
In experiment [5] the test system is RXF 393 renal.
In experiment [6] the test system is SF-295 CNS.
The test system of experiment [7] is SNB-75 CNS.
The subject of experiment [8] is SR leukemia.
Experiment [9] concerns U251 CNS.
The subject of experiment [10] is UACC-257 melanoma.

The structures appear in SMILES notation. Where “and” joins values, the source holds several entries; their conditions need not be identical. Equal entries are not always repeated.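 A five-concentration, 48-hour dose response in 96-well plates underlies each endpoint, interpolated linearly between surrounding concentrations. At the GI50, growth is halved. At the TGI there is no net growth.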 A value given as a limit tells only on which side of the number the result lay.

On to `Cc1ccc(Nc2nc(NCCO)c3ccccc3n2)cc1C`, for which the GI50 is 3.95 µM in experiment [1]; 10.7 µM in [2]; 4.44 µM in experiment [3]; 5.44 µM in experiment [4]; 3.14 µM in [5]; 4.37 µM in experiment [6]. In addition, the GI50 in experiment [7] was 8.14 µM; in experiment [8], 2.28 µM; in experiment [9], 2.75 µM; in experiment [10] it was 2.14 µM. The TGI came out at 14.5 µM in [1]; 24.1 µM in [2]; 16.7 µM in experiment [3]; 25.9 µM in experiment [4]; 13.7 µM in experiment [5]; 17.5 µM in experiment [6]. In addition, the TGI in experiment [7] was 20.9 µM; in [8], 6.08 µM; in [9], 12.1 µM; in experiment [10], 7.37 µM.

Regarding `CC/C=C\C[C@H](O)C/C=C1/C(=O)C=C[C@@H]1C/C=C\CCCC(=O)NC(C)C`, the GI50 is 1.73 µM in [1]; 2.65 µM in experiment [2]; 2.43 µM in [3]; 3.04 µM in experiment [4]; 2.14 µM in [5]; 2.42 µM in experiment [6]. In addition, the GI50 in [7] was 8.2 µM; in [8], 2.43 µM; in [9], 2.61 µM; in experiment [10], 2.17 µM. Besides, the TGI in experiment [1] was found to be 3.59 µM; in [2], 6.59 µM; in [3], 5.79 µM; in [4], 10.7 µM; in [5] it was 3.94 µM; in experiment [6], 5.69 µM. Further, the TGI in experiment [7] amounted to 21 µM; in experiment [8] it was 8.33 µM; in [9] it was 7.08 µM; in experiment [10], 6.22 µM.

For the molecule `Cn1c(C(N)=O)cc2c1-c1nc(Nc3ccccc3)ncc1CCC2`, the GI50 in experiment [1] was 3.52 µM; in [2], 2.96 µM; in [3], 4.2 µM; in [4] it was 7.06 µM; in experiment [5] it was 1.44 µM; in experiment [6], 4.65 µM. The GI50 in [7] was 1.61 µM; in experiment [8], 4.47 µM; in experiment [9], 3.55 µM; in experiment [10], 19.7 µM. Further, the TGI in experiment [1] is 41.7 µM; in experiment [2], 52.6 µM; in experiment [3], more than 100 µM; in experiment [4], 69.3 µM; in [5] it was 5.34 µM; in [6] it was more than 100 µM. The TGI in [7] is 8.35 µM; in experiment [8], 33.1 µM; in [9], more than 100 µM; in experiment [10], 88.7 µM.

As for `C=C1C(=O)O[C@H]2[C@H]1CC/C(COC(=O)C(=O)c1c[nH]c3ccccc13)=C\CC[C@@]1(C)O[C@@H]21`, the GI50 in experiment [1] was 1.68 µM; in experiment [2], 1.72 µM; in [3] it was 4.03 µM; in [4], 3.14 µM; in [5] it was 2.01 µM; in experiment [6] it was 11.8 µM. Also, the GI50 was 2.29 µM in [7], 1.55 µM in [8], 1.86 µM in [9] and 1.64 µM in [10]. The TGI in [1] was found to be 3.24 µM; in [2], 4 µM; in experiment [3] it was 20.7 µM; in experiment [4], 12.7 µM; in experiment [5], 3.61 µM; in [6], 24.9 µM. In addition, the TGI in experiment [7] came to 11.1 µM; in experiment [8] it was 14.3 µM; in experiment [9], 3.64 µM; in experiment [10] it was 3.53 µM.

For `Cc1ccc(NC(c2ccccc2)c2ccc3cccnc3c2O)cc1` (stereo not drawn), the TGI was 13.8 µM in experiment [1]; 19.9 µM in [2]; more than 25 µM in experiment [3]; 11.1 µM in experiment [4]; 22.8 µM in experiment [5]; 16.1 µM in experiment [6]. The TGI came out at 19.2 µM in experiment [7], 14.4 µM in experiment [8], 10.9 µM in [9] and 25.8 µM in experiment [10].

On to `CC(C)C[C@@H](NC(=O)[C@@H](Cc1ccccc1)NC(=O)c1cnccn1)B1O[C@H]2[C@H](O)[C@@H](C(=O)NCCCC[C@@H]3NC(=O)[C@@H](Cc4ccccc4)NC(=O)[C@H](CC(=O)O)NC(=O)CNC(=O)[C@H](CCCN=C(N)N)NC3=O)O[C@@H](CN)[C@H]2O1`, for which the GI50 in experiment [1] is 0.00339 µM and 0.005 µM; in [2], 0.0125 µM and 0.0189 µM; in experiment [3] it was 0.0344 µM and 0.0179 µM; in experiment [4] it was 0.0365 µM and 0.0139 µM; in [5], 0.00345 µM and < 0.005 µM; in experiment [6], 0.00486 µM and 0.005 µM. For the same molecule, the GI50 is 0.0188 µM in experiment [7]; 0.00261 µM in experiment [8]; 0.0328 µM and 0.00592 µM in [9]; 0.0135 µM and 0.005 µM in experiment [10]. Also, the TGI in experiment [1] is 0.0182 µM and 0.0103 µM; in experiment [3], 0.135 µM and 0.185 µM; in experiment [4], 0.622 µM and 0.0987 µM; in experiment [5] it was 0.0135 µM and < 0.005 µM; in experiment [6], 0.02 µM and 0.0147 µM; in experiment [7] it was 0.0516 µM. In addition, the TGI was 0.218 µM and 0.0431 µM in [9]; 0.0812 µM and 0.0183 µM in experiment [10].

Consider `c1ccc(N=C2c3ccccc3CN2c2ccccc2)cc1`, for which the TGI in experiment [1], in experiment [2], in [3], in experiment [4], in experiment [5] and in experiment [6] was more than 100 µM in each case. The TGI in [7], in experiment [8], in [9] and in [10] was more than 100 µM in each case.

For the molecule `CC[C@@H]1C[C@@H]2CN3CCc4c([nH]c5ccc(OC)cc45)C(COC(=O)c4ccc(OC)c(OC)c4)(C2)C13`, the TGI in [1] was 44 µM; in experiment [2], 93 µM; in [3], 84.1 µM; in experiment [4], more than 100 µM; in experiment [5] it was 62.6 µM; in [6] it was 70.6 µM. Besides, the TGI in experiment [7] is more than 100 µM; in experiment [8], 78.4 µM; in experiment [9] it was 43.6 µM; in experiment [10] it was 37.8 µM.

For the molecule `COc1cc(/C=C(/C)[N+](=O)[O-])ccc1O`, the GI50 is 1.65 µM and 1.71 µM in [1]; 2.46 µM in experiment [2]; 2.52 µM and 2.22 µM in experiment [3]; 2.86 µM and 2.73 µM in experiment [4]; 1.72 µM and 1.8 µM in experiment [5]; 9.45 µM and 2.77 µM in experiment [6]. The GI50 in experiment [7] is 3.64 µM and 1.91 µM; in experiment [8] it was 1.12 µM; in experiment [9] it was 1.77 µM and 1.87 µM; in [10], 1.66 µM and 1.61 µM. Also, the TGI in experiment [1] is 3.12 µM and 3.29 µM; in experiment [2], 6.01 µM; in experiment [3], 7.15 µM and 6.05 µM; in [4] it was 9.5 µM and 7.93 µM; in [5], 3.24 µM and 3.31 µM; in experiment [6], 22.4 µM and 8.89 µM. Moreover, the TGI was 15.1 µM and 8.45 µM in [7]; 11.2 µM in experiment [8]; 3.79 µM and 3.7 µM in experiment [9]; 3.39 µM and 3.25 µM in [10].

Take `Oc1c(CN2CCC(N3CCOCC3)CC2)cc(Cc2cc(CN3CCC(N4CCOCC4)CC3)c(O)c3ncccc23)c2cccnc12`: the GI50 in experiment [1] was 0.383 µM; in experiment [2] it was 0.356 µM; in experiment [3] it was 0.471 µM; in experiment [4], 1.57 µM; in [5] it was 3.06 µM; in experiment [6], 0.549 µM. The GI50 is 2.57 µM in experiment [7], 0.593 µM in experiment [8], 0.385 µM in experiment [9] and 3.62 µM in experiment [10]. Besides, the TGI was found to be 48.7 µM in experiment [1]; 18.4 µM in experiment [2]; 16.6 µM in [3]; 21.9 µM in experiment [4]; 18.7 µM in experiment [5]; 3.13 µM in experiment [6]. The TGI was found to be 38.2 µM in experiment [7], 20.5 µM in [8], 17.6 µM in experiment [9] and 16.3 µM in experiment [10].

On to `COc1ccc(C(=O)Cn2c(C(=O)c3ccc(Cl)cc3)nc3ccccc32)cc1`, for which the GI50 in experiment [1] is 2.56 µM; in [3] it was 25.2 µM; in [4], more than 100 µM; in experiment [5], 3.62 µM; in experiment [6] it was 22.8 µM; in experiment [7], 20.9 µM. Also, the figures for the GI50 in experiment [8], in experiment [9] and in experiment [10] were 2.2 µM, 19.4 µM and more than 100 µM, respectively. In addition, the TGI is more than 25 µM in [1]; more than 34.6 µM in experiment [2]; more than 100 µM in experiment [3]; more than 100 µM in [4]; 20.5 µM in experiment [5]; more than 100 µM in experiment [6]. The TGI in experiment [7] is more than 100 µM; in [8], more than 22.4 µM; in experiment [9] it was more than 100 µM; in experiment [10], more than 100 µM.

Take `CCN1C(=O)C/C(=C\C(C)=O)Nc2ccccc21`: the TGI in experiment [1], in experiment [2], in experiment [3], in [4], in [5] and in experiment [6] was more than 100 µM throughout. The TGI in [7] was more than 67.1 µM; in [8] it was more than 100 µM; in experiment [9] it was more than 100 µM; in experiment [10] it was more than 100 µM. The GI50 in experiment [10] is more than 100 µM.
